Assay results from patent US20250214991A1 (Oncopia Therapeutics, Inc. d/b/a/ SK Life Science Labs, priority 2022, published 2025).

Columns and labels:
[1] = biological target: CRBN/DDB1 (Homo sapiens (Human), UniProt Q96SW2); experiment: IC50 measurements for binding to CRBN/DDB1 (HTRF); details: His tagged CRBN+DDB, Cy5-labeled Thalidomide probe, one hour
In short: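 HTRF competition binding with 2 nM His-tagged CRBN-DDB1 complex, 60 nM Cy5-thalidomide probe and 0.4 nM anti-His Tb cryptate in 50 mM HEPES pH 7.5, 1 mM TCEP, 0.01% Brij-35, 50 mM NaCl, 0.1% BSA. Read after 1 h at room temperature; IC50 from four-parameter dose-response fit.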

[2] = biological target: T1, IKZF2 (Homo sapiens (Human), UniProt Q96SW2+Q9UKS7); experiment: In vitro IKZF2 FACS Assay in Jurkat cells; type: cell-based; details: 24 hrs; for DC50: half maximal degradation concentration; for Dmax: maximal degradation percentage
Procedure: In vitro IKZF2 FACS Assay
DC50, A: <1 nM; B: 1-10 nM; C: 10-100 nM; D: 100-1000 nM; E: >1000 nM. Dmax, A: >80%; B: 60-80%; C: 40-60%; D: 20-40%; E: <20%.

[3] = biological target: T1, IKZF2; experiment: In vitro IKZF2 HiBit Assay (HEK293T Flp-in-HiBiT cells); type: cell-based; details: HEK293T Flp-in-HiBiT cells, 6 hrs incubation; for DC50: read-out: IKZF2 HiBit DC50; for Dmax: HEK-293T, read-out: IKZF2 HiBit Dmax (%)
In short: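 HEK293T Flp-in cells carrying an endogenous N-terminal HiBiT tag on IKZF2 were exposed to compound for 6 h at 0.1% DMSO. The dilution series was 11 doses at 3-fold, diluted from 1 mM. Nano-Glo HiBiT lytic luminescence, normalized to DMSO, gave DC50 for 50% degradation and Dmax across the concentration range, both reported in letter bins.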

[4] = biological target: IKZF1 (Homo sapiens (Human), UniProt Q13422+Q96SW2); experiment: In vitro IKZF1 HiBit Assay (HEK293T Flp-in-HiBiT-IKZF1 stable cell line); type: cell-based; details: HEK293T Flp-in-HiBiT-IKZF1 stable cell line, 6 hrs incubation; for DC50: read-out: IKZF1 HiBit DC50; for Dmax: HEK-293T, read-out: IKZF1 HiBit Dmax (%)
In short: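 HEK293T Flp-in cells carrying N-terminal HiBiT-tagged IKZF1 were exposed to compound (0.1% DMSO) for 6 h at 3000 cells/well. HiBiT luminescence was read after lytic LgBiT detection. DC50 and Dmax were taken from DMSO-normalized dose-response curves.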

T1 sequence (Q9UKS7 whole entry): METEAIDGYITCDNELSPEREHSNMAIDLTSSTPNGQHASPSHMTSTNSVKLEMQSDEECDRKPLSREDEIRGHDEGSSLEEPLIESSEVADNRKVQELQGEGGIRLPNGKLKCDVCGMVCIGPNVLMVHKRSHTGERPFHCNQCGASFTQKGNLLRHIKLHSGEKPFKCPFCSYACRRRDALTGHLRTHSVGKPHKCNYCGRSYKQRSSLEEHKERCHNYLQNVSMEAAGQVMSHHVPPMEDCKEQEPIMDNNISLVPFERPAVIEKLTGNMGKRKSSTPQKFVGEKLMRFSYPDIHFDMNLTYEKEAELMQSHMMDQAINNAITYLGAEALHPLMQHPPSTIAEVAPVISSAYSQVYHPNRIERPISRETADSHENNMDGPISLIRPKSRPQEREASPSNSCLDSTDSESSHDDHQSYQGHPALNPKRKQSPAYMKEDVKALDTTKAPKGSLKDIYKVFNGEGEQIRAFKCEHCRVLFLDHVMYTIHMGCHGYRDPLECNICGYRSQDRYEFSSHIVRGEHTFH
T1 sequence (Q96SW2 whole entry): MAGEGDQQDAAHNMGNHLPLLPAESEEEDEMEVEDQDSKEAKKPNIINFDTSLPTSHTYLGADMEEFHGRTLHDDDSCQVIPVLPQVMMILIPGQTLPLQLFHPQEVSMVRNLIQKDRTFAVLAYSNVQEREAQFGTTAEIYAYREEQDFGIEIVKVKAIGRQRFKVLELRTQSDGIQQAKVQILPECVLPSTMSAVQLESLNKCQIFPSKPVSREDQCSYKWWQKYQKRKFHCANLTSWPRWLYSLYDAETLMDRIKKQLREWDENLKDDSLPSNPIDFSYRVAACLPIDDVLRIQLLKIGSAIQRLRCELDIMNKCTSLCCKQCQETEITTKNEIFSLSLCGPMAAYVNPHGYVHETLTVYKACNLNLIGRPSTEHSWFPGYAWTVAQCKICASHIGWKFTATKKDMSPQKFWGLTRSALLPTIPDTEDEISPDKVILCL
T1 sequence (Q16531 2-1140 partner): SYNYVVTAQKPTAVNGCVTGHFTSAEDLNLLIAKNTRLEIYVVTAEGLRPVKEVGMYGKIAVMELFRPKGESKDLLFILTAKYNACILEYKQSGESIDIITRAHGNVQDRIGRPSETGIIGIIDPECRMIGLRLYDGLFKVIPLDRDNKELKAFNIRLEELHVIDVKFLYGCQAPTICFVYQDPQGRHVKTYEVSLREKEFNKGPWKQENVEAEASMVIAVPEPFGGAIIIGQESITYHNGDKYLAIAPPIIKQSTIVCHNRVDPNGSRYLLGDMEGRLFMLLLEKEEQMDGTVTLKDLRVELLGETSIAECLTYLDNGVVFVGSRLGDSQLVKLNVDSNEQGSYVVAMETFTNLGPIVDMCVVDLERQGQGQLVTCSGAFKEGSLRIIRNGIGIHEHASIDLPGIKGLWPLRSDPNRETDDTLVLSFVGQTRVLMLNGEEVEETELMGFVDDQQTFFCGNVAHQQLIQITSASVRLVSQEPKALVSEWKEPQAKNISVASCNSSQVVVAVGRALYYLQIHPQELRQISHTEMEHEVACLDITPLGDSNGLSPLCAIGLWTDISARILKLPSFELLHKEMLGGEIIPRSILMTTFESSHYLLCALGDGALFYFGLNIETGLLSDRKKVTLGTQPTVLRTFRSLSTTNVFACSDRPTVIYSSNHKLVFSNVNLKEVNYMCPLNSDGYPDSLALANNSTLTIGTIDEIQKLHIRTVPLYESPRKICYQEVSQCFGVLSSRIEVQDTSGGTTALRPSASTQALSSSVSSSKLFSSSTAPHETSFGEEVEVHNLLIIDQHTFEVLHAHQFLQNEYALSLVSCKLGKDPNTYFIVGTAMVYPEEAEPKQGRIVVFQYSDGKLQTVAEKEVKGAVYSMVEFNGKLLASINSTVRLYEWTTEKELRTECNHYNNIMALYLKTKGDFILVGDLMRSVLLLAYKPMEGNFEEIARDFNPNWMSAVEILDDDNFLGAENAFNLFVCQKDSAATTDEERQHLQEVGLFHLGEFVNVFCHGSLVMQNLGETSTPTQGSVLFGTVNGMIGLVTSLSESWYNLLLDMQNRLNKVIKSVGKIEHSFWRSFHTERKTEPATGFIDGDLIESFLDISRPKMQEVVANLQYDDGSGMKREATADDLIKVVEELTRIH
Chain of CRBN/DDB1 (Q96SW2 whole entry, species assumed): as the sequence (Q96SW2 whole entry) above
Chain of CRBN/DDB1 (Q16531 whole entry partner, species assumed): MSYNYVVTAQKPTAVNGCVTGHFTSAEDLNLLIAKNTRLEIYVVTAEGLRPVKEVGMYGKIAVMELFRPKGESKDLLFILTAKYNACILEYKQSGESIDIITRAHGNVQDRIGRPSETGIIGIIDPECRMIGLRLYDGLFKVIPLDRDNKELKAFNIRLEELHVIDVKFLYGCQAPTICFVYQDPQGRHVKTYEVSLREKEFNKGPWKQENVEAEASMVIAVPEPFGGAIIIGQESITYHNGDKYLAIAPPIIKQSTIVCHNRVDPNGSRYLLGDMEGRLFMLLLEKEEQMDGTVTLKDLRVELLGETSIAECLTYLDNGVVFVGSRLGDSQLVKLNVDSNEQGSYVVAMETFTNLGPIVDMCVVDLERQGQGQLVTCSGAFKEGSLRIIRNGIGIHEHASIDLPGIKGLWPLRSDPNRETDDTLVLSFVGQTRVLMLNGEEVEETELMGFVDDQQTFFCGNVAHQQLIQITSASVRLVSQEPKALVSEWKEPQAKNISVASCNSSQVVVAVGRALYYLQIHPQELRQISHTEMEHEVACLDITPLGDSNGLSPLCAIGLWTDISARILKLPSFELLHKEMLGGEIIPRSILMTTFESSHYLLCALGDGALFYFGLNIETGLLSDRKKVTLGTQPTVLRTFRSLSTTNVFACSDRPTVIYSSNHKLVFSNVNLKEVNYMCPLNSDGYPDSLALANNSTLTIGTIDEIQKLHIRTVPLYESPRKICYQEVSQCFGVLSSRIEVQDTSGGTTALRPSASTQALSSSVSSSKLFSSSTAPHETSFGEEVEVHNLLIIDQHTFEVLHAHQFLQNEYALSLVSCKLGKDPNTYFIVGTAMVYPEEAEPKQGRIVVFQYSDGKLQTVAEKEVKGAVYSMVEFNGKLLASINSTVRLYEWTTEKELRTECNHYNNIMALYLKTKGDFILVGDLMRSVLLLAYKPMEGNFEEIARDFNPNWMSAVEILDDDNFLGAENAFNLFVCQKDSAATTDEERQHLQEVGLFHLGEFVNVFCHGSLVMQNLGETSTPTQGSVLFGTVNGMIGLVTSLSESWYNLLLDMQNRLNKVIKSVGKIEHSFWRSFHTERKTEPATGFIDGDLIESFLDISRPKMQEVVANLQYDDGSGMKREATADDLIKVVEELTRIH
Chain of IKZF1 (Q13422 whole entry): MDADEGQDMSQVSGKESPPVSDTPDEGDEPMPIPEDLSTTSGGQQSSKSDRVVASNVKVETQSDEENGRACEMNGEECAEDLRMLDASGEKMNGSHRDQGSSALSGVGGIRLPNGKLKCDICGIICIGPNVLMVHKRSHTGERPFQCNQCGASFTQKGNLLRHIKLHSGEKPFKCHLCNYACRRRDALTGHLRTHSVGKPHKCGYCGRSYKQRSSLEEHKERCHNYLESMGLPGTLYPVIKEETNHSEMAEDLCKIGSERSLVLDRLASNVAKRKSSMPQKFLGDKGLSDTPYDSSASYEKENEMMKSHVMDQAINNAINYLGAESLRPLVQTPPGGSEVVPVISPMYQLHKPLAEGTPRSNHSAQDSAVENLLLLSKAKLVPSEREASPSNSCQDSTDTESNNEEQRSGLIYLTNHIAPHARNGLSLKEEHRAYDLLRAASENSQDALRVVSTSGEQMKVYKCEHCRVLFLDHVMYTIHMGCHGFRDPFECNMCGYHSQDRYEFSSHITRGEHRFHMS
Chain of IKZF1 (Q96SW2 whole entry): as the sequence (Q96SW2 whole entry) above
Chain of IKZF1 (Q16531 2-1140 partner): as the sequence (Q16531 2-1140 partner) above

Compound	IC50 [1] [nM]	DC50 [2] [nM]	Dmax [2] [%]	DC50 [3] [nM]	Dmax [3] [%]	DC50 [4] [µM]	Dmax [4] [%]
O=C1CCC(N2Cc3cc(-c4ncc5cc(CN6CCCC6)ccn45)ccc3C2=O)C(=O)N1 (stereo not drawn) [Example 52, 3-(1-oxo-5-(7-(pyrrolidin-1-ylmethyl)imidazo[1,5-a]pyridin-3-yl)isoindolin-2-yl) piperidine-2,6-dione]	500 to 1000	10 to 100	40 to 60	1 to 10	60 to 80	> 10	< 20
O=C1CCC(N2Cc3cc(-c4ccc(CN5CCCC5)c5cncn45)ccc3C2=O)C(=O)N1 (stereo not drawn) [Example 54, 3-(1-oxo-5-(8-(pyrrolidin-1-ylmethyl)imidazo[1,5-a]pyridin-5-yl)isoindolin-2-yl) piperidine-2,6-dione]	1000 to 5000	< 1	> 80	1000 to 10000	< 20	> 10	< 20
O=C1CCC(N2Cc3cc(-c4cc(CN5CCCC5)c5ccn(C6CS(=O)(=O)C6)c5n4)ccc3C2=O)C(=O)N1 (stereo not drawn) [Example 176, 3-(5-(1-(1,1-dioxidothietan-3-yl)-4-(pyrrolidin-1-ylmethyl)-1H-pyrrolo[2,3-b]pyridin-6-yl)-1-oxoisoindolin-2-yl) piperidine-2,6-dione]	500 to 1000	1 to 10	60 to 80	1 to 10	> 80	0.01 to 0.1	20 to 40
O=C1CCC(N2Cc3cc(-c4cc(CN5CCC6(CCC6)CC5)cc5cncn45)ccc3C2=O)C(=O)N1 (stereo not drawn) [Example 9, 3-(5-(7-((7-azaspiro[3.5]nonan-7-yl)methyl)imidazo[1,5-a]pyridin-5-yl)-1-oxoisoindolin-2-yl) piperidine-2,6-dione]	500 to 1000	10 to 100	40 to 60	–	–	–	–
Cn1cnc2c(-c3ccc4c(c3)CN(C3CCC(=O)NC3=O)C4=O)cc(CNCCc3ccccc3Cl)cc21 (stereo not drawn) [Example 51, 3-(5-(6-(((2-chlorophenethyl)amino)methyl)-1-methyl-1H-benzo[d]imidazol-4-yl)-1-oxoisoindolin-2-yl) piperidine-2,6-dione]	100 to 500	> 1000	20 to 40	–	–	–	–
O=C1CCC(N2Cc3c(ccc(-c4cc(CN5CCCC5)cc5cncn45)c3F)C2=O)C(=O)N1 (stereo not drawn) [Example 27, 3-(4-fluoro-1-oxo-5-(7-(pyrrolidin-1-ylmethyl)imidazo[1,5-a]pyridin-5-yl)isoindolin-2-yl) piperidine-2,6-dione]	500 to 1000	10 to 100	40 to 60	–	–	–	–
CC1CCCN(Cc2cc(-c3ccc4c(c3)CN(C3CCC(=O)NC3=O)C4=O)n3cncc3c2)C1 (stereo not drawn) [Example 5, 3-(5-(7-((3-methylpiperidin-1-yl)methyl)imidazo[1,5-a]pyridin-5-yl)-1-oxoisoindolin-2-yl) piperidine-2,6-dione]	1000 to 5000	10 to 100	40 to 60	–	–	–	–
O=C1CCC(N2Cc3cc(-c4cc(CN5CCOCC5)cc5cncn45)ccc3C2=O)C(=O)N1 (stereo not drawn) [Example 4, 3-(5-(7-(morpholinomethyl)imidazo[1,5-a]pyridin-5-yl)-1-oxoisoindolin-2-yl) piperidine-2,6-dione]	1000 to 5000	> 1000	20 to 40	–	–	–	–
C[C@@H](NCc1cc(-c2ccc3c(c2)CN(C2CCC(=O)NC2=O)C3=O)n2cncc2c1)c1ccccc1 (single isomer, unassigned) [Example 16, 3-(1-oxo-5-(7-((((R*)-1-phenylethyl)amino)methyl)imidazo[1,5-a]pyridin-5-yl)isoindolin-2-yl) piperidine-2,6-dione]	500 to 1000	10 to 100	40 to 60	–	–	–	–
C[C@@H](c1ccccc1)N(C)Cc1cc(-c2ccc3c(c2)CN(C2CCC(=O)NC2=O)C3=O)n2cncc2c1 (single isomer, unassigned) [Example 15, 3-(5-(7-((methyl ((S*)-1-phenylethyl)amino)methyl)imidazo[1,5-a]pyridin-5-yl)-1-oxoisoindolin-2-yl) piperidine-2,6-dione]	1000 to 5000	10 to 100	20 to 40	–	–	–	–
C[C@H](c1ccccc1)N(C)Cc1cc(-c2ccc3c(c2)CN(C2CCC(=O)NC2=O)C3=O)n2cncc2c1 (single isomer, unassigned) [Example 17, 3-(5-(7-((methyl ((R*)-1-phenylethyl)amino)methyl)imidazo[1,5-a]pyridin-5-yl)-1-oxoisoindolin-2-yl) piperidine-2,6-dione]	1000 to 5000	10 to 100	20 to 40	–	–	–	–
C[C@H](NCc1cc(-c2ccc3c(c2)CN(C2CCC(=O)NC2=O)C3=O)n2cncc2c1)c1ccccc1 (single isomer, unassigned) [Example 14, 3-(1-oxo-5-(7-((((S*)-1-phenylethyl)amino)methyl)imidazo[1,5-a]pyridin-5-yl)isoindolin-2-yl) piperidine-2,6-dione]	100 to 500	10 to 100	40 to 60	–	–	–	–
CN(Cc1cc(-c2ccc3c(c2)CN(C2CCC(=O)NC2=O)C3=O)n2cncc2c1)C(C)(C)c1ccccc1 (stereo not drawn) [Example 19, 3-(5-(7-((methyl (2-phenylpropan-2-yl)amino)methyl)imidazo[1,5-a]pyridin-5-yl)-1-oxoisoindolin-2-yl) piperidine-2,6-dione]	1000 to 5000	100 to 1000	20 to 40	–	–	–	–
O=C1CCC(N2Cc3cc(-c4cc(CN5CC6COCC(C6)C5)cc5cncn45)ccc3C2=O)C(=O)N1 (stereo not drawn) [Example 11]	500 to 1000	100 to 1000	40 to 60	–	–	–	–
O=C1CCC(N2Cc3cc(-c4cc(CNCc5cccc6ccccc56)cc5cncn45)ccc3C2=O)C(=O)N1 (stereo not drawn) [Example 24, 3-(5-(7-(((naphthalen-1-ylmethyl)amino)methyl)imidazo[1,5-a]pyridin-5-yl)-1-oxoisoindolin-2-yl) piperidine-2,6-dione]	1000 to 5000	10 to 100	20 to 40	–	–	–	–
CC(NCc1cc(-c2ccc3c(c2)CN(C2CCC(=O)NC2=O)C3=O)n2cncc2c1)c1cccc(Cl)c1 (stereo not drawn) [Example 20, 3-(5-(7-(((1-(3-chlorophenyl)ethyl)amino)methyl)imidazo[1,5-a]pyridin-5-yl)-1-oxoisoindolin-2-yl) piperidine-2,6-dione]	1000 to 5000	10 to 100	20 to 40	–	–	–	–
CC(C)(NCc1cc(-c2ccc3c(c2)CN(C2CCC(=O)NC2=O)C3=O)n2cncc2c1)c1ccccc1 (stereo not drawn) [Example 18, 3-(1-oxo-5-(7-(((2-phenylpropan-2-yl)amino)methyl)imidazo[1,5-a]pyridin-5-yl)isoindolin-2-yl) piperidine-2,6-dione]	500 to 1000	100 to 1000	40 to 60	–	–	–	–
Cc1ccc(CCNCc2cc(-c3ccc4c(c3)CN(C3CCC(=O)NC3=O)C4=O)n3cncc3c2)cc1Cl (stereo not drawn) [Example 22]	1000 to 5000	> 1000	20 to 40	–	–	–	–
COc1c(-c2cc(CN3CCCC3)cc3cncn23)ccc2c1CN(C1CCC(=O)NC1=O)C2=O (stereo not drawn) [Example 31, 3-(4-methoxy-1-oxo-5-(7-(pyrrolidin-1-ylmethyl)imidazo[1,5-a]pyridin-5-yl)isoindolin-2-yl) piperidine-2,6-dione]	100 to 500	> 1000	< 20	–	–	–	–
Cn1ccc2cccc(CNCc3cc(-c4ccc5c(c4)CN(C4CCC(=O)NC4=O)C5=O)n4cncc4c3)c21 (stereo not drawn) [Example 25]	100 to 500	> 1000	< 20	–	–	–	–
O=C1CCC(N2Cc3cc(-c4cc(CNCc5ccccc5)cc5cncn45)ccc3C2=O)C(=O)N1 (stereo not drawn) [Example 13, 3-(5-(7-((benzylamino)methyl)imidazo[1,5-a]pyridin-5-yl)-1-oxoisoindolin-2-yl) piperidine-2,6-dione]	100 to 500	10 to 100	20 to 40	–	–	–	–
CCN(CC)Cc1cc(-c2ccc3c(c2)CN(C2CCC(=O)NC2=O)C3=O)n2cncc2c1 (stereo not drawn) [Example 12, 3-(5-(7-((diethylamino)methyl)imidazo[1,5-a]pyridin-5-yl)-1-oxoisoindolin-2-yl) piperidine-2,6-dione]	100 to 500	100 to 1000	40 to 60	–	–	–	–
O=C1CCC(N2Cc3cc(-c4cc(CN5CCC5)cc5cncn45)ccc3C2=O)C(=O)N1 (stereo not drawn) [Example 2, 3-(5-(7-(azetidin-1-ylmethyl)imidazo[1,5-a]pyridin-5-yl)-1-oxoisoindolin-2-yl) piperidine-2,6-dione]	100 to 500	100 to 1000	40 to 60	–	–	–	–
O=C1CCC(N2Cc3cc(-c4ncc5ccc(CN6CCCC6)cn45)ccc3C2=O)C(=O)N1 (stereo not drawn) [Example 53, 3-(1-oxo-5-(6-(pyrrolidin-1-ylmethyl)imidazo[1,5-a]pyridin-3-yl)isoindolin-2-yl) piperidine-2,6-dione]	5000 to 10000	> 1000	20 to 40	–	–	–	–
